Data published in patent US6184401A, “Alpha-fluoro alkynoic acids with anticonvulsant activity” (priority 1999, dated 2001).

What was measured:
[1] = tested on: animals (seizure induced by pentylenetetrazole); experiment: PTZ convulsion test (anticonvulsant activity); format: in vivo; conditions: intraperitoneal, sodium salt, PTZ 65 mg/kg s.c. after 15 minutes
Protocol: The anti-convulsive activity of the compounds of the invention was determined by the PTZ convulsion test (E. Swinyard et al., 1969, "Laboratory Evaluation of Antiepileptic Drugs, Review of Laboratory Methods," Epilepsia 10, 107-119; E. Swinyard, J. Woodhead, in Antiepileptic Drugs, 2nd ed., D. Woodbury, J. Penry, C. Pippenger, eds., Raven Press, New York, 1982, 111-126). Briefly, animals were dosed intraperitoneally with the sodium salt of the compound to be tested, and then challenged after 15 minutes with a subcutaneous injection of pentylenetetrazole (65 mg/kg). The percentage of animals that were protected from seizure (defined as at least one episode of continuous seizure activity lasting at least five seconds) is reported in Table 1 as "Anticonvulsant Activity %".

fetuses = experiment: Teratogenic potential: exencephaly in fetuses of treated pregnant animals; format: in vivo; conditions: sodium salt, injected day 8 of gestation, fetuses examined day 18
Protocol: The teratogenic potential of the compounds was determined by injecting pregnant animals on day 8 of gestation with the sodium salt of the compound to be tested, and by examining the fetuses on day 18 of gestation (H. Nau, 1985, Toxicol. Appl. Pharmacol., 80, 243-250; H. Nau, W. Loscher, 1986, Fund. Appl. Toxicol., 6, 669).

[2] = anticonvulsant; cited from earlier work
hepatotoxicity = conditions: effect of the 2-fluoro substituent; cited from earlier work
animals = format: in vivo; conditions: dose 1.5 mmol/kg, sodium salt, after 15 minutes
Protocol: The sedative activity of the compounds was determined by the "Rotorod" test (Dunham, Miya, 1957, J. Am. Pharm. Assoc., 46, 208-209). Animals were dosed with the sodium salt of the compound to be tested, and after 15 minutes they were placed on the ROTOROD apparatus (Rotorod, Ugobasile, Italy). The percentage of animals that fell from the rod is reported as "Sedative Activity %" in Table 1.

[3] = tested on: newborns of women taking VPA; conditions: newborns of women taking VPA during pregnancy; cited from earlier work
mice = conditions: cited from earlier work
[4] = in vivo; cited from earlier work
children on polytherapy = conditions: young children on polytherapy; cited from earlier work

## CC#CCC(F)(CCCCCCCC)C(=O)O (centres unmarked) [Example 8, 2-fluoro-2-n-octyl-4-hexynoic acid]
[1]; dose 0.25 mmol/kg
  Anticonvulsant Activity % (percentage of animals protected from seizure): 40%
fetuses; dose 0.5 mmol/kg
  Teratogenic Activity % (percent of fetuses exhibiting exencephaly): 0%

## O=C(O)C(CCC(F)(F)F)CCC(F)(F)F [5,5,5-trifluoro-2-(3,3,3-trifluoropropyl) pentanoic acid]
[2]
  potency relative to VPA: less potent than VPA

## CC#CCC(F)(CCCCCCC)C(=O)O (centres unmarked) [Example 7, 2-fluoro-2-n-heptyl-4-hexynoic acid]
[1]; dose 0.5 mmol/kg
  Anticonvulsant Activity % (percentage of animals protected from seizure): 60%
fetuses; dose 1.0 mmol/kg
  Teratogenic Activity % (percent of fetuses exhibiting exencephaly): 0%

## CC#CCC(F)(CCCCC)C(=O)O (centres unmarked) [Example 5, 2-fluoro-2-n-pentyl-4-hexynoic acid]
[1]; dose 1.5 mmol/kg
  Anticonvulsant Activity % (percentage of animals protected from seizure): 80%
fetuses; dose 1.5 mmol/kg
  Teratogenic Activity % (percent of fetuses exhibiting exencephaly): 1%

## CCCC(CCC(F)(F)F)C(=O)O (centres unmarked) [5,5,5-trifluoro-2-n-propyl pentanoic acid]
[2]
  potency relative to VPA: less potent than VPA

## C=CCC(F)(CCC)C(=O)O (centres unmarked) [2-fluoro-2-propyl-4-pentenoic acid]
hepatotoxicity
  hepatotoxicity relative to 2-propyl-4-pentenoic acid: reduce hepatotoxicity relative to 2-propyl-4-pentenoic acid

## CCCC(CCC)C(=O)O [VPA, 2-propylpentanoic acid]
[1]; dose 1.0 mmol/kg
  Anticonvulsant Activity % (percentage of animals protected from seizure): 60%
animals
  Sedative Activity % (percentage of animals that fell from the rod): 40%
fetuses; dose 3.0 mmol/kg
  Teratogenic Activity % (percent of fetuses exhibiting exencephaly): 50%
[3]
  risk of spina bifida: 1-2%
mice
  neural tube defects: induce neural tube defects in mice
[4]
  duration of action: short duration of action
  serious side effects: sedation, potentially fatal hepatotoxicity, and teratogenicity
Children on polytherapy
  VPA-induced hepatic fatality rate: 1/500

## CCCC(F)(CCC)C(=O)O [2-fluoro-2-propylpentanoic acid]
[2]
  potency relative to VPA: less potent than VPA

## CC#CCC(F)(CCC)C(=O)O (centres unmarked) [Example 3, 2-fluoro-2-n-propyl-4-hexynoic acid]
[1]; dose 1.5 mmol/kg
  Anticonvulsant Activity % (percentage of animals protected from seizure): 20%
fetuses; dose 3.0 mmol/kg
  Teratogenic Activity % (percent of fetuses exhibiting exencephaly): 2%
